These results are taken from patent publication US9408871B2, “Methods for inhibiting complement activation and uses thereof” (THE UNIVERSITY OF BRITISH COLUMBIA, priority 2013, dated 2016).

In experiment [1] the test system is total complement-mediated hemolytic activity. The experiment in a line: total complement-mediated hemolytic activity assay (4.5% NHS, rabbit erythrocytes). The format is cell-based, human. Conditions: rRBC, 30 min, read-out: IC50 (concentration required to achieve half maximal inhibition of lysis), total hemolytic activity. From the text:
Erythrocyte lysis assays were used to measure complement-mediated hemolytic activity. Erythrocyte (RBC) lysis assays as previously described^18,37 were used to measure complement activity. For alternative pathway assays and for total hemolytic activity assays, unsensitized rabbit erythrocytes were used. Chicken erythrocytes were used for the terminal pathway assays.
Erythrocytes were washed three times in GVB with the reaction buffers as indicated, and counted using the Advia 120 Hematology System from Siemens (Siemens, Erlangen, Germany). Reactions in 300 μL were allowed to proceed for 30 min at 37° C., after which unlysed cells were pelleted by centrifugation at 600×g. Erythrocyte lysis, reflected by the released hemoglobin in the supernatant, was quantified by measuring the absorbance at 405 nm using the Mithras LB 940 microplate reader from Berthold Technologies (Bad Wildbad, Germany). Percent lysis was determined relative to the control of 100% lysis with H2O. […]
For total hemolytic activity assays, normal human serum (NHS) (4.5%), polyphosphate, and rabbit erythrocytes (rRBC) (6.0×10^7 cells/mL) were added sequentially to initiate lysis. […] Increasing absorbance corresponds to increasing hemoglobin release from lysed red blood cells. The linear region of the curve was determined to be between 20-80% lysis, corresponding to 2.5-4.5% serum. […]

The test system of experiment [2] is choroidal neovascularization. The experiment can be described thus: experimental laser-induced choroidal neovascularization (CNV) model, retina whole mounts. The format is in vivo. Conditions: rat, intravitreal injection 10′ after laser, final estimated concentration 200 μM, 5 days. On the procedure: Eleven-week-old female Long Even (LE) rats (Charles River Laboratory, Wilmington, Mass.) weighing 256 to 315 g were used. The animals were handled in accordance with institutional guidelines and the ARVO Statement for the Use of Animals in Ophthalmic and Vision Research. The rats were anesthetized by intramuscular injection of a 1 mL/kg mixture (1:1) of ketamine hydrochloride (40 mg/kg) and xylazine hydrochloride (10 mg/ml), and their pupils were dilated with tropicamide (0.5% Mydrin). Experimental choroidal neovascularization (CNV) was created as described previously (Takehana et al., Invest Ophthalmol Vis Sci, 1999, 40 (2):459-66). […]
After laser treatment, under anesthesia, intravitreal injections were performed on a lasered eye under a dissecting microscope (Stereo dissection microscope, SMZ 1000; Nikon, Tokyo, Japan). […] After the procedure, animals were monitored in a recovery enclosure until they resumed baseline normal activity levels. […]
Each eye cup flatmount preparation was analyzed using a confocal laser-scanning microscope (Zeiss-LSM 510 META). […] Intensity and size of GSL-IB4 and C5b-9 immunohistochemistry were analyzed using image-processing and image-analysis software Image J 1.37 (developed by Wayne Rasband, National Institute of Health, Bethesda, Md., USA). […]

With `O=P(O)(O)O` [P1, Orthophosphate], the IC50 in experiment [1] is ~3.5 mM. In addition, the “neovascularization and deposition of MAC on retina after laser injury” value in experiment [2] was “is not protective”.
